This note sets out measurements from ChEMBL document CHEMBL6109061, “Discovery of an Ultralong-acting Nondepolarizing Neuromuscular Blocker That Displays Short Onset Time and On-Demand Rapid Reversal by a Biocompatible Antagonist” (J Med Chem, 2025).

Data set [1] is described as follows: Solubility of compound in water. Type of data set: physicochemical.
The subject of data set [2] is Rattus norvegicus. As to the kind of experiment: Neuromuscular block activity in propofol-induced anesthetized Sprague-Dawley rat model assessed as inhibition of twitch by measuring twitch intensity of quadriceps muscle at 0.04 mg/kg, iv administered as bolus dose by TOF watch monitor analysis relative to control. In kind it is functional.
Data set [3] relates to Rattus norvegicus. As to the kind of experiment: Neuromuscular block activity in propofol-induced anesthetized Sprague-Dawley rat model assessed as inhibition of twitch by measuring twitch intensity of quadriceps muscle at 0.032 mg/kg, iv administered as bolus dose by TOF watch monitor analysis relative to control. Type of data set: functional.
Data set [4] deals with Rattus norvegicus. As to the kind of experiment: Neuromuscular block activity in propofol-induced anesthetized Sprague-Dawley rat model assessed as inhibition of twitch by measuring twitch intensity of quadriceps muscle at 0.2 mg/kg, iv administered as bolus dose by TOF watch monitor analysis relative to control. Type of data set: functional.
The subject of data set [5] is Rattus norvegicus. The data set can be described thus: Neuromuscular block activity in propofol-induced anesthetized Sprague-Dawley rat model assessed as inhibition of twitch by measuring twitch intensity of quadriceps muscle at 1.5 mg/kg, iv administered as bolus dose by TOF watch monitor analysis relative to control. Type of data set: functional.
Data set [6] deals with Rattus norvegicus. As to the kind of experiment: Neuromuscular block activity in propofol-induced anesthetized Sprague-Dawley rat model assessed as inhibition of twitch by measuring twitch intensity of quadriceps muscle at 3 mg/kg, iv administered as bolus dose by TOF watch monitor analysis relative to control. In kind it is functional.
Data set [7] concerns Rattus norvegicus. The data set can be described thus: Neuromuscular block activity in propofol-induced anesthetized Sprague-Dawley rat model assessed as inhibition of twitch by measuring twitch intensity of quadriceps muscle at 10 mg/kg, iv administered as bolus dose by TOF watch monitor analysis relative to control. In kind it is functional.
Data set [8] has as its system Rattus norvegicus. As to the kind of experiment: Neuromuscular block activity in propofol-induced anesthetized Sprague-Dawley rat model assessed as onset time required for twitch reduction at 0.032 mg/kg, iv. Type of data set: functional.
Data set [9] deals with Rattus norvegicus. The data set can be described thus: Neuromuscular block activity in propofol-induced anesthetized Sprague-Dawley rat model assessed as onset time required for twitch reduction at 0.04 mg/kg, iv. Type of data set: functional.
The subject of data set [10] is Rattus norvegicus. The data set can be described thus: Neuromuscular block activity in propofol-induced anesthetized Sprague-Dawley rat model assessed as onset time required for twitch reduction at 0.2 mg/kg, iv. Type of data set: functional.
For data set [11], the system named is Rattus norvegicus. As to the kind of experiment: Neuromuscular block activity in propofol-induced anesthetized Sprague-Dawley rat model assessed as onset time required for twitch reduction at 1.5 mg/kg, iv. Type of data set: functional.
For data set [12], the system named is Rattus norvegicus. As to the kind of experiment: Neuromuscular block activity in propofol-induced anesthetized Sprague-Dawley rat model assessed as onset time required for twitch reduction at 3 mg/kg, iv. In kind it is functional.
Data set [13] relates to Rattus norvegicus. The data set can be described thus: Neuromuscular block activity in propofol-induced anesthetized Sprague-Dawley rat model assessed as onset time required for twitch reduction at 10 mg/kg, iv. Type of data set: functional.
Data set [14] concerns Rattus norvegicus. The data set can be described thus: Neuromuscular block activity in propofol-induced anesthetized Sprague-Dawley rat model assessed as time duration of 0 to 25 percent recovery indices at 0.032 mg/kg, iv. Type of data set: functional.
Data set [15] relates to Rattus norvegicus. The data set can be described thus: Neuromuscular block activity in propofol-induced anesthetized Sprague-Dawley rat model assessed as time duration of 0 to 25 percent recovery indices at 0.04 mg/kg, iv. In kind it is functional.
The test system of data set [16] is Rattus norvegicus. The data set can be described thus: Neuromuscular block activity in propofol-induced anesthetized Sprague-Dawley rat model assessed as time duration of 0 to 25 percent recovery indices at 0.2 mg/kg, iv. Type of data set: functional.
Data set [17] has as its system Rattus norvegicus. The data set can be described thus: Neuromuscular block activity in propofol-induced anesthetized Sprague-Dawley rat model assessed as time duration of 0 to 25 percent recovery indices at 1.5 mg/kg, iv. Type of data set: functional.
Data set [18] has as its system Rattus norvegicus. As to the kind of experiment: Neuromuscular block activity in propofol-induced anesthetized Sprague-Dawley rat model assessed as time duration of 0 to 25 percent recovery indices at 3 mg/kg, iv. In kind it is functional.
For data set [19], the system named is Rattus norvegicus. As to the kind of experiment: Neuromuscular block activity in propofol-induced anesthetized Sprague-Dawley rat model assessed as time duration of 0 to 25 percent recovery indices at 10 mg/kg, iv. In kind it is functional.
Data set [20] concerns Rattus norvegicus. The data set can be described thus: Neuromuscular block activity in propofol-induced anesthetized Sprague-Dawley rat model assessed as recovery time at 0.032 mg/kg, iv. Type of data set: functional.
The test system of data set [21] is Rattus norvegicus. As to the kind of experiment: Neuromuscular block activity in propofol-induced anesthetized iv dosed Sprague-Dawley rat model assessed as effective dose. Type of data set: functional.
A short description of data set [22]: Toxicity in iv dosed ICR mouse assessed as maximum tolerated dose. Type of data set: organism-based. To be noted: in vivo.
Data set [23] has as its system H9c2. As to the kind of experiment: Cytotoxicity against rat H9c2 cells assessed as cell viability at 150 microg/ml measured for 24 hrs by SRB assay. In kind it is toxicity, cell-based. To be noted: h9c2, 24 h, dose 150 µg/ml.
A short description of data set [24]: Hemolytic activity in human RBC assessed as hemolysis rate at 2048 microg/ml relative to control. Type of data set: toxicity, cell-based, Erythrocyte. To be noted: red blood cells, at 2048 µg/mL, read-out: Activity.
The nature of data set [25]: Hemolytic activity in rat RBC assessed as hemolysis rate at 2048 microg/ml relative to control. In kind it is toxicity, cell-based, Erythrocyte. To be noted: red blood cells, at 2048 µg/mL, read-out: Activity.
Data set [26] concerns the target Voltage-gated inwardly rectifying potassium channel KCNH2 (Homo sapiens, UniProt Q12809). The data set can be described thus: Inhibition of hERG by Qpatch assay. In kind it is toxicity. On the technique in general: hERG is a cardiac potassium channel; its block is linked to QT prolongation.
A short description of data set [27]: Mutagenicity in Salmonella typhimurium TA97a by AMES test. To be noted: salmonella enterica subsp. enterica serovar typhimurium. In kind it is toxicity.
Data set [28] can be described thus: Mutagenicity in Salmonella typhimurium TA98 by AMES test. In kind it is toxicity. To be noted: salmonella enterica subsp. enterica serovar typhimurium.
The nature of data set [29]: Mutagenicity in Salmonella typhimurium TA100 by AMES test. To be noted: salmonella enterica subsp. enterica serovar typhimurium. In kind it is toxicity.
Data set [30] is described as follows: Toxicity in Sprague-Dawley rat assessed as heart damage at 3 mg/kg, iv measured after 5 hrs by H and E staining based analysis. Type of data set: organism-based. To be noted: in vivo.
Data set [31] is described as follows: Toxicity in Sprague-Dawley rat assessed as liver damage at 3 mg/kg, iv measured after 5 hrs by H and E staining based analysis. In kind it is organism-based. To be noted: in vivo.
Data set [32] can be described thus: Toxicity in Sprague-Dawley rat assessed as spleen damage at 3 mg/kg, iv measured after 5 hrs by H and E staining based analysis. In kind it is organism-based. To be noted: in vivo.
Data set [33] in a line: Toxicity in Sprague-Dawley rat assessed as lung damage at 3 mg/kg, iv measured after 5 hrs by H and E staining based analysis. Type of data set: organism-based. To be noted: in vivo.
A short description of data set [34]: Toxicity in Sprague-Dawley rat assessed as kidney damage at 3 mg/kg, iv measured after 5 hrs by H and E staining based analysis. Type of data set: organism-based. To be noted: in vivo.
For data set [35], the system named is Rattus norvegicus. As to the kind of experiment: Reversal of IMC-14-induced neuromuscular block in Sprague-Dawley rat model assessed as recovery time at 10 mg/kg, iv measured at 5 hrs. Type of data set: functional.
The subject of data set [36] is Rattus norvegicus. The data set can be described thus: Reversal of IMC-14-induced neuromuscular block in Sprague-Dawley rat model assessed as recovery time at 10 mg/kg, iv measured at 30 mins. In kind it is functional. To be noted: 0.5 h.
In data set [37] the test system is Rattus norvegicus. As to the kind of experiment: Reversal of IMC-14-induced neuromuscular block in Sprague-Dawley rat model assessed as recovery time at 10 mg/kg, iv measured at 30 sec. Type of data set: functional. To be noted: 0.5 min.
The subject of data set [38] is Rattus norvegicus. As to the kind of experiment: Reversal of IMC-14-induced neuromuscular block in Sprague-Dawley rat model assessed as recovery time at 20 mg/kg, iv measured at 19 sec. In kind it is functional. To be noted: 19 s.
A short description of data set [39]: Toxicity in Sprague-Dawley rat at 0.2 mg/kg, iv measured for 5 hrs. In kind it is organism-based. To be noted: in vivo.

Sequence of Voltage-gated inwardly rectifying potassium channel KCNH2 (Q12809 whole entry): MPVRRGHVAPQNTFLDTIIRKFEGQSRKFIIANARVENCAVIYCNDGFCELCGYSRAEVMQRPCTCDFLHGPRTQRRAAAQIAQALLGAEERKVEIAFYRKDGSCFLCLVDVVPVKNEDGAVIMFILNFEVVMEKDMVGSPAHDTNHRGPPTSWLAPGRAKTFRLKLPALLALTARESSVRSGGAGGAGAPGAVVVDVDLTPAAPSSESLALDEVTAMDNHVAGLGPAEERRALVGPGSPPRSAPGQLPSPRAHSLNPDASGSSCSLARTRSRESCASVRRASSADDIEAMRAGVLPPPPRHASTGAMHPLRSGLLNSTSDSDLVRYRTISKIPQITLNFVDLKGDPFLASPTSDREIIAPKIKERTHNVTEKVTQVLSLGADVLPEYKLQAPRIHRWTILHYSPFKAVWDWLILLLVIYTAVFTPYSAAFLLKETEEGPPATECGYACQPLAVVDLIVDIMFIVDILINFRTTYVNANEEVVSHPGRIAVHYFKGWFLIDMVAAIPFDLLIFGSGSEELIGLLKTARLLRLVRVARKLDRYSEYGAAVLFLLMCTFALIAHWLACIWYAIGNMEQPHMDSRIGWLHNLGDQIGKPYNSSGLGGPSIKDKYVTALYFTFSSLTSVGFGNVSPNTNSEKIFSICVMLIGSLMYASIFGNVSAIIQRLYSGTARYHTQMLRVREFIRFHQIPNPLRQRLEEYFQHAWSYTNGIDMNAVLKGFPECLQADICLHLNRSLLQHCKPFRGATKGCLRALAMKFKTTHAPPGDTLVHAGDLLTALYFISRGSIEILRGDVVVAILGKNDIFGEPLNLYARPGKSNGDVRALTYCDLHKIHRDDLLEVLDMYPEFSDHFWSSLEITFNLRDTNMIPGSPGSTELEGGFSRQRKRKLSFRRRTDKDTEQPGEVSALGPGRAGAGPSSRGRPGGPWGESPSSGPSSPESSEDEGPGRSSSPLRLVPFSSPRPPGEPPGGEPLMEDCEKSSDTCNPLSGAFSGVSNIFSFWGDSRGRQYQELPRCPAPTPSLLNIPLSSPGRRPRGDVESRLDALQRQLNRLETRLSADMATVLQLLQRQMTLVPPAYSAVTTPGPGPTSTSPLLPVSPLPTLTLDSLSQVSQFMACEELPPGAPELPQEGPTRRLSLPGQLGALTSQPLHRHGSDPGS

The solubility is the concentration that dissolves in the medium under given conditions. Higher therefore signals a readily soluble substance. In general, inhibition in vivo refers to the relative decrease from the control value, in per cent. What is called ED50 is the dose at which the effect has come halfway, by size or by number of responders. One may read the MTD as the largest dose that counted as tolerated. As usually defined, the IC50 is the concentration that inhibits the measured activity by half. Regarding `Cc1n2cc[n+]1Cc1ccc(cc1)Oc1ccc(cc1)C[n+]1ccn(c1C)CCCn1cc[n+](c1C)Cc1ccc(cc1)Oc1ccc(cc1)C[n+]1ccn(c1C)CCC2.[Cl-].[Cl-].[Cl-].[Cl-]`, in [1], the solubility is at least 50 mM. Further, the inhibition in vivo at 0.04 mg/kg in data set [2] amounted to 90%. Also, the inhibition in vivo at 0.032 mg/kg in data set [3] came out at 90%. For the same molecule, in [4], the inhibition in vivo at 0.2 mg/kg worked out at 100%. Moreover, in [5], the inhibition in vivo at 1.5 mg/kg was 100%. In addition, in data set [6], the inhibition in vivo at 3 mg/kg was found to be 100%. The inhibition in vivo at 10 mg/kg in data set [7] was 100%. Moreover, the Time in data set [8] turned out to be 293 s; in data set [9] it was 90 s; in [10], 20.5 s; in data set [11] it was 13 s; in data set [12] it was 9 s; in data set [13] it was 9 s. Also, the Time is recorded as 35 min in data set [14]; 102 min in data set [15]; 217 min in data set [16]; above 300 min in data set [17]; above 300 min in data set [18]; above 300 min in data set [19]. The Time in data set [20] came to 7.6 min. Further, the ED50 in data set [21] is 0.016 mg/kg. Besides, the maximal tolerated dose (MTD) in data set [22] worked out at 550 mg/kg. The Activity result in data set [23], in data set [27], in data set [28], in [29], in data set [30] and in [31] was “Non-toxic” each time. Moreover, the Activity result in [32], in [33] and in data set [34] was “Non-toxic” each time. For the same molecule, the hemolysis at 2048 microg/ml in data set [24] and in data set [25] was below 5% each time. For the same molecule, the IC50 in [26] is above 40 µM.

Take `C[C@]12N3Cc4c(c(OCCCC(=O)[O-])c5ccccc5c4OCCCC(=O)[O-])CN1C(=O)N1CN4C(=O)N5CN6C(=O)N7CN8C(=O)N9Cc%10c(c(OCCCC(=O)[O-])c%11ccccc%11c%10OCCCC(=O)[O-])CN%10C(=O)N(CN%11C(=O)N(CN%12C(=O)N(CN(C3=O)[C@]12C)[C@@H]4[C@H]%125)[C@@H]6[C@H]%117)[C@]8(C)[C@@]9%10C.[Na+].[Na+].[Na+].[Na+]`: the Time is 12 s in data set [35], 19 s in data set [36], 54 s in data set [37] and 30 s in data set [38]. Further, the Activity entry in data set [39] is on record as “Non-toxic”.
